Assay results published in patent US20240279236A1, “COMPOUNDS AND METHODS OF TREATING TUBERCULOSIS” (Fimbrion Therapeutics, Inc., priority 2021, published 2024).

System: WT Mtb Erdman strain
Test: Microplate Alamar Blue Assay (MABA), Mtb growth inhibition
Assay type: cell-based, Mycobacterium tuberculosis
Details: Mycobacterium tuberculosis, ERDMAN, 168 h, Middlebrook 7H9 media, 7 days at 37° C. in 5% CO2

First: Cc1cc2c(NCCCc3ccc(-c4ccc(OC(F)(F)F)cc4)cc3)nc(-c3ccoc3)nc2s1 [Example 291, 2-(furan-3-yl)-6-methyl-N-(3-(4′-(trifluoromethoxy)-[1,1′-biphenyl]-4-yl)propyl)thieno [2,3-d]pyrimidin-4-amine]
Second: Cc1cc2c(NCCCc3ccc(-c4ccc(OC(F)(F)F)cc4)cc3)nc(-c3ccon3)nc2s1 [Example 263, 2-(isoxazol-3-yl)-6-methyl-N-(3-(4′-(trifluoromethoxy)-[1,1′-biphenyl]-4-yl)propyl)thieno [2,3-d]pyrimidin-4-amine]
The IC50 of the first is 1.6-fold lower: 8 nM for the first, 13 nM for the second. The first is the more potent here.

First: Cc1cc2c(NCCCc3ccc(-c4ccc(OC(F)(F)F)cc4)cc3)nc(-c3ccc(F)cc3)nc2s1 [Example 295, 2-(4-fluorophenyl)-6-methyl-N-(3-(4′-(trifluoromethoxy)-[1,1′-biphenyl]-4-yl)propyl)thieno [2,3-d]pyrimidin-4-amine]
Second: FC(F)(F)Oc1ccc(-c2ccc(CCCNc3nc(-c4ccc[nH]4)nc4sccc34)cc2)cc1 [Example 574, 2-(1H-pyrrol-2-yl)-N-(3-(4′-(trifluoromethoxy)-[1,1′-biphenyl]-4-yl)propyl)thieno[2,3-d]pyrimidin-4-amine]
The IC50 of the first is lower: 400 nM for the first, > 520 nM for the second.

First: CNc1nc(NCCCc2ccc(-c3ccc(N(C)C)cc3)cc2)c2cc(C)sc2n1 [Example 539, N4-(3-(4′-(dimethylamino)-[1,1′-biphenyl]-4-yl)propyl)-N2,6-dimethylthieno[2,3-d]pyrimidine-2,4-diamine]
Second: CCc1nc(NCCCc2ccc(-c3ccc(F)cc3)cc2)c2cc(C)sc2n1 [Example 304, 2-ethyl-N-(3-(4′-fluoro-[1,1′-biphenyl]-4-yl)propyl)-6-methylthieno[2,3-d]pyrimidin-4-amine]
The IC50 of the first is 1.7-fold higher: 68 nM for the first, 40 nM for the second.

Compared with CCc1nc(NCCc2ccccn2)c2cc(C)sc2n1 [Example 14, 2-ethyl-6-methyl-N-(2-(pyridin-2-yl)ethyl)thieno[2,3-d]pyrimidin-4-amine], CCc1nc(NCCc2ccc(Cl)c(Cl)c2)c2cc(C)sc2n1 [Example 127, N-(3,4-dichlorophenethyl)-2-ethyl-6-methylthieno[2,3-d]pyrimidin-4-amine] is lower in IC50: > 10000 nM for the first, 2800 nM for the second.

Compared with CCc1nc(NCCCc2ccc(-c3cnccn3)cc2)c2cc(C)sc2n1 [Example 371, 2-ethyl-6-methyl-N-(3-(4-(pyrazin-2-yl)phenyl)propyl) thieno[2,3-d]pyrimidin-4-amine], COc1nc(NCCCc2ccc(-c3cnc(F)cn3)cc2)c2cc(C)sc2n1 [Example 561, N-(3-[4-(5-fluoropyrazin-2-yl)phenyl]propyl)-2-methoxy-6-methylthieno[2,3-d]pyrimidin-4-amine] is 4.8-fold lower in IC50: 150 nM for the first, 31 nM for the second. The second is the more potent here.

First: Cc1cc2c(NCCCc3ccc(C(C)(C)C)cc3)nc(C(F)(F)F)nc2s1 [Example 206, N-(3-(4-(tert-butyl)phenyl)propyl)-6-methyl-2-(trifluoromethyl) thieno[2,3-d] pyrimidin-4-amine]
Second: CCc1nc(NCCCc2ccc(C(C)(C)C)cc2)c2cc(C)sc2n1 [Example 203, N-(3-(4-(tert-butyl)phenyl)propyl)-2-ethyl-6-methylthieno[2,3-d]pyrimidin-4-amine]
The IC50 of the first is 2.9-fold higher: 260 nM for the first, 89 nM for the second. The second is the more potent here.

Compared with Cc1cc2c(NCCCc3ccc(-c4ncc(C(F)(F)F)cn4)cc3)nc(N(C)C)nc2s1 [Example 558, N2,N2,6-trimethyl-N4-(3-(4-[5-(trifluoromethyl)pyrimidin-2-yl]phenyl)propyl)thieno[2,3-d]pyrimidine-2,4-diamine], Cc1cnc(-c2ccc(CCCNc3nc(N(C)C)nc4sc(C)cc34)cc2)cn1 [Example 559, N2,N2,6-trimethyl-N4-(3-[4-(5-methylpyrazin-2-yl)phenyl]propyl)thieno[2,3-d]pyrimidine-2,4-diamine] is higher in IC50: < 4 nM for the first, 11 nM for the second.

Compared with Cc1cc2c(NCCCc3ccc(OC(F)(F)F)cc3)nc(C(F)(F)F)nc2s1 [Example 36, 6-methyl-N-(3-(4-(trifluoromethoxy)phenyl)propyl)-2-(trifluoromethyl)thieno [2,3-d]pyrimidin-4-amine], CSc1nc(NCCCc2ccc(OC(F)(F)F)cc2)c2cc(C)sc2n1 [Example 124, 6-methyl-2-(methylthio)-N-(3-(4-(trifluoromethoxy)phenyl)propyl) thieno[2,3-d]pyrimidin-4-amine] is 34-fold lower in IC50: 2100 nM for the first, 62 nM for the second. The second is the more potent here.

Compared with CSCc1nc(NCCCc2ccccc2)c2cc(C)sc2n1 [Example 75, 6-methyl-2-((methylthio)methyl)-N-(3-phenylpropyl)thieno [2,3-d]pyrimidin-4-amine], Cc1cc2c(NCCCc3ccccc3)nc(CN(C)C)nc2s1 [Example 109, 2-((dimethylamino)methyl)-6-methyl-N-(3-phenylpropyl)thieno [2,3-d]pyrimidin-4-amine] is higher in IC50: 2000 nM for the first, > 10000 nM for the second.

Going from CCc1nc(N[C@H]2C[C@@H]2c2ccccc2)c2cc(C)sc2n1 [Example 2, 2-ethyl-6-methyl-N-((1S,2R)-2-phenylcyclopropyl) thieno[2,3-d]pyrimidin-4-amine] to CCCc1nc(N[C@@H]2C[C@H]2c2ccc(F)c(F)c2)c2cc(C)sc2n1 [Example 52, N-((1R,2S)-2-(3,4-difluorophenyl)cyclopropyl)-6-methyl-2-propylthieno[2,3-d]pyrimidin-4-amine], the IC50 falls from 3100 nM to 810 nM (3.8-fold).

Going from Cc1nc2c(N[C@@H]3C[C@H]3c3ccc(F)c(F)c3)nc(-c3ccncn3)nc2s1 [Example 148, N-((1R,2S)-2-(3,4-difluorophenyl)cyclopropyl)-2-methyl-5-(pyrimidin-4-yl)thiazolo[5,4-d]pyrimidin-7-amine] to Cc1nc2c(N[C@@H]3C[C@H]3c3ccc(F)c(F)c3)nc(-c3ccc(F)cn3)nc2s1 [Example 146, N-((1R,2S)-2-(3,4-difluorophenyl)cyclopropyl)-5-(5-fluoropyridin-2-yl)-2-methylthiazolo[5,4-d]pyrimidin-7-amine], the IC50 falls from > 10000 nM to 5100 nM.

Compared with Cc1cc2c(NCCCc3ccccc3)nc(-n3ccnc3)nc2s1 [Example 131, 2-(1H-imidazol-1-yl)-6-methyl-N-(3-phenylpropyl)thieno [2,3-d]pyrimidin-4-amine], CNc1nc(NCCCc2ccccc2)c2cc(C)sc2n1 [Example 521, N2,6-dimethyl-N4-(3-phenylpropyl)thieno[2,3-d]pyrimidine-2,4-diamine] is 12-fold lower in IC50: 3000 nM for the first, 250 nM for the second.

Compared with FC(F)(F)Oc1ccc(-c2ccc(CCCNc3nc(Cl)nc4scnc34)cc2)cc1 [Example 468, 5-chloro-N-(3-(4′-(trifluoromethoxy)-[1,1′-biphenyl]-4-yl)propyl)thiazolo[5,4-d]pyrimidin-7-amine], Cc1cc2c(NCCCc3ccc(OC(F)(F)F)cc3)nc(-c3ccon3)nc2s1 [Example 121, 2-(isoxazol-3-yl)-6-methyl-N-(3-(4-(trifluoromethoxy)phenyl)propyl)thieno[2,3-d]pyrimidin-4-amine] is 5.3-fold lower in IC50: 690 nM for the first, 130 nM for the second.

First: Cc1cc2c(N[C@@H]3C[C@H]3c3ccc(F)c(F)c3)nc(-c3nccs3)nc2s1 [Example 42, N-((1R,2S)-2-(3,4-difluorophenyl)cyclopropyl)-6-methyl-2-(thiazol-2-yl)thieno[2,3-d]pyrimidin-4-amine]
Second: COc1ccc(-c2nc(N[C@@H]3C[C@H]3c3ccc(F)c(F)c3)c3cc(C)sc3n2)cc1 [Example 498, N-((1R,2S)-2-(3,4-difluorophenyl)cyclopropyl)-2-(4-methoxyphenyl)-6-methylthieno[2,3-d]pyrimidin-4-amine]
The IC50 of the first is 2-fold higher: 8100 nM for the first, 4100 nM for the second.

First: Cc1cc2c(NC/C=C/c3ccc(-c4ccc(OC(F)(F)F)cc4)cc3)nc(-c3ccoc3)nc2s1 [Example 323, 2-(furan-3-yl)-6-methyl-N-[(2E)-3-[4′-(trifluoromethoxy)-[1,1′-biphenyl]-4-yl]prop-2-en-1-yl]thieno[2,3-d]pyrimidin-4-amine]
Second: Cc1cc2c(NCCC(=O)N3CCN(c4ccccc4)CC3)nc(-c3ccoc3)nc2s1 [Example 210, 3-((2-(furan-3-yl)-6-methylthieno[2,3-d]pyrimidin-4-yl)amino)-1-(4-phenylpiperazin-1-yl)propan-1-one]
The IC50 of the first is 220-fold lower: 37 nM for the first, 8200 nM for the second. The first is the more potent here.

First: COC(=O)c1nc(NCCCc2ccc(OC(F)(F)F)cc2)c2cc(C)sc2n1 [Example 117, methyl 6-methyl-4-((3-(4-(trifluoromethoxy)phenyl)propyl)amino) thieno[2,3-d]pyrimidine-2-carboxylate]
Second: CCCc1ccc(CCCNc2nc(C(F)(F)F)nc3sc(C)cc23)cc1 [Example 236, 6-methyl-N-(3-(4-propylphenyl)propyl)-2-(trifluoromethyl) thieno [2,3-d]pyrimidin-4-amine]
The IC50 of the first is higher: > 7700 nM for the first, 1400 nM for the second.

Cc1cc2c(NCCCc3cccc(C(F)(F)F)c3)nc(C(F)(F)F)nc2s1 [Example 179, 6-methyl-2-(trifluoromethyl)-N-(3-(3-(trifluoromethyl)phenyl)propyl) thieno[2,3-d] pyrimidin-4-amine] and Cc1cc2c(NCCCc3ccccc3)nc(-c3cn[nH]c3)nc2s1 [Example 130, 6-methyl-N-(3-phenylpropyl)-2-(1H-pyrazol-4-yl)thieno[2,3-d]pyrimidin-4-amine] are within 1.5-fold of each other in IC50: 1700 nM for the first, 2200 nM for the second.

Cc1cc2c(N[C@@H]3C[C@H]3c3ccc(F)c(F)c3)nc(NC3COC3)nc2s1 [Example 526, N4-((1R,2S)-2-(3,4-difluorophenyl)cyclopropyl)-6-methyl-N2-(oxetan-3-yl)thieno[2,3-d]pyrimidine-2,4-diamine] and Cc1cc2c(N[C@@H]3C[C@H]3c3ccc(F)c(F)c3)nc(Oc3ccccc3)nc2s1 [Example 153, N-((1R,2S)-2-(3,4-difluorophenyl)cyclopropyl)-6-methyl-2-phenoxythieno[2,3-d]pyrimidin-4-amine] cannot be ordered by IC50: > 10000 nM for the first, > 10000 nM for the second.

Compared with Cc1cc2c(N[C@@H]3C[C@H]3c3ccc(F)c(F)c3)nc(-c3ccc(S(C)(=O)=O)cc3)nc2s1 [Example 492, N-((1R,2S)-2-(3,4-difluorophenyl)cyclopropyl)-6-methyl-2-(4-(methylsulfonyl)phenyl)thieno[2,3-d]pyrimidin-4-amine], CCc1nc(NCCCn2ccc3ccccc32)c2cc(C)sc2n1 [Example 196, N-(3-(1H-indol-1-yl)propyl)-2-ethyl-6-methylthieno[2,3-d]pyrimidin-4-amine] is lower in IC50: > 10000 nM for the first, 450 nM for the second.
